Experimental data taken from US12077503B2, “Substituted cyclic amides and their use as herbicides” (FMC CORPORATION, priority 2015, dated 2024).

Assays:
Format in all cases: in vivo
Kochia (Kochia scoparia) [1] = assay: Test A preemergence; details: Bassia scoparia, pre-emergence, 240 h, 0 to 100 scale where 0 is no effect and 100 is complete control, read-out: Kochia plant response rating
In short: (§1)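 Greenhouse, ~10 d after spray; visual injury vs untreated controls, 0 = no effect, 100 = complete control. Preemergence: directed soil spray over planted seeds. Postemergence: plants 2–10 cm, 1–2 leaf stage. Loam/sand blend. Compound in non-phytotoxic solvent with surfactant.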

[2] = test system: barnyardgrass (Echinochloa crus-galli); assay: Test A preemergence; details: Echinochloa crus-galli, pre-emergence, 240 h, 0 to 100 scale where 0 is no effect and 100 is complete control, read-out: Barnyardgrass plant response rating
In short: as §1

[3] = test system: giant foxtail (Setaria faberii); assay: Test A preemergence; details: Setaria faberi, pre-emergence, 240 h, 0 to 100 scale where 0 is no effect and 100 is complete control, read-out: Foxtail, Giant plant response rating
In short: as §1

[4] = test system: pigweed (Amaranthus retroflexus); assay: Test A preemergence; details: Amaranthus retroflexus, pre-emergence, 240 h, 0 to 100 scale where 0 is no effect and 100 is complete control, read-out: Pigweed plant response rating
[5] = test system: ragweed (common ragweed, Ambrosia elatior); assay: Test A preemergence; details: Ambrosia artemisiifolia, pre-emergence, 240 h, 0 to 100 scale where 0 is no effect and 100 is complete control, read-out: Ragweed plant response rating
In short: as §1

[6] = test system: ryegrass, Italian (Italian ryegrass, Lolium multiflorum); assay: Test A preemergence; details: Lolium multiflorum, pre-emergence, 240 h, 0 to 100 scale where 0 is no effect and 100 is complete control, read-out: Ryegrass, Italian plant response rating
In short: as §1

[7] = test system: Galium (catchweed bedstraw, Galium aparine); assay: Test A postemergence; details: Galium, post-emergence, 240 h, Postemergence, read-out: Galium plant response rating (0 to 100 scale)
In short: as §1

Kochia (Kochia scoparia) [8] = assay: Test A postemergence; details: Bassia scoparia, post-emergence, 240 h, Postemergence, read-out: Kochia plant response rating (0 to 100 scale)
In short: as §1

[9] = test system: barnyardgrass (Echinochloa crus-galli); assay: Test A postemergence; details: Echinochloa crus-galli, post-emergence, 240 h, Postemergence
In short: as §1

[10] = test system: blackgrass (Alopecurus myosuroides); assay: Test A postemergence; details: Alopecurus myosuroides, post-emergence, 240 h, Postemergence, read-out: Blackgrass plant response rating (0 to 100 scale)
In short: as §1

corn (Zea mays) = assay: Test A postemergence; details: Zea mays, post-emergence, 240 h, Postemergence, read-out: Corn plant response rating (0 to 100 scale)
In short: as §1

[11] = test system: giant foxtail (Setaria faberii); assay: Test A postemergence; details: Setaria faberi, post-emergence, 240 h, Postemergence, read-out: Foxtail, Giant plant response rating (0 to 100 scale)
In short: as §1

[12] = test system: pigweed (Amaranthus retroflexus); assay: Test A postemergence; details: Amaranthus retroflexus, post-emergence, 240 h, Postemergence, read-out: Pigweed plant response rating (0 to 100 scale)
In short: as §1

[13] = test system: ragweed (common ragweed, Ambrosia elatior); assay: Test A postemergence; details: Ambrosia artemisiifolia, post-emergence, 240 h, Postemergence, read-out: Ragweed plant response rating (0 to 100 scale)
In short: as §1

[14] = test system: ryegrass, Italian (Italian ryegrass, Lolium multiflorum); assay: Test A postemergence; details: Lolium multiflorum, post-emergence, 240 h, Postemergence, read-out: Ryegrass, Italian plant response rating (0 to 100 scale)
In short: as §1

[15] = test system: wheat (Triticum aestivum); assay: Test A postemergence; details: Triticum aestivum, post-emergence, 240 h, Postemergence, read-out: Wheat plant response rating (0 to 100 scale)
In short: as §1

[16] = test system: barnyardgrass (Echinochloa crus-galli); assay: Test B flooded paddy test; details: Echinochloa crus-galli, 250 g ai/ha, Flood; 0 to 100 scale where 0 is no effect and 100 is complete control; read-out: Barnyardgrass plant response rating
In short: (§2)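 Greenhouse paddy pots with 2-leaf stage plants received compound by direct addition to floodwater 3 cm deep, kept at that level. Scored visually at 13–15 d versus controls (0 no effect; 100 complete control).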

[17] = test system: ducksalad (Heteranthera limosa); assay: Test B flooded paddy test; details: Heteranthera limosa, 250 g ai/ha, Flood; 0 to 100 scale where 0 is no effect and 100 is complete control; read-out: Ducksalad plant response rating
In short: as §2

rice (Oryra sativa) = assay: Test B flooded paddy test; details: Oryza sativa, 250 g ai/ha, Flood; 0 to 100 scale where 0 is no effect and 100 is complete control; read-out: Rice plant response rating
In short: as §2

[18] = test system: sedge, umbrella (small-flower umbrella sedge, Cyperus difformis); assay: Test B flooded paddy test; details: Cyperus difformis, 250 g ai/ha, Flood; 0 to 100 scale where 0 is no effect and 100 is complete control; read-out: Sedge, Umbrella plant response rating
In short: as §2

[19] = 125 g ai/ha, preemergence, visual injury rating, approximately 10 d
[20] = 125 g ai/ha, visual rating about 10 d after treatment
[21] = 31 g ai/ha, 0 is no effect, 100 is complete control

O=C(Nc1ccccc1F)[C@H]1C(=O)N(CC(F)F)C[C@@H]1c1cccc(C(F)(F)F)c1 [Compound 1295]
40%: pest or weed control at 125 g/ha [3, 19]
0%: pest or weed control at 31 g/ha (Kochia (Kochia scoparia) [1]; 31 g ai/ha, Preemergence) | pest or weed control at 125 g/ha (Kochia (Kochia scoparia) [1]; [19]) | pest or weed control at 31 g/ha ([2]; 31 g ai/ha, Preemergence) | pest or weed control at 125 g/ha [2, 19] | pest or weed control at 31 g/ha ([3]; 31 g ai/ha, Preemergence) | pest or weed control at 31 g/ha ([4]; 31 g ai/ha, Preemergence) | pest or weed control at 125 g/ha [4, 19] | pest or weed control at 31 g/ha ([5]; 31 g ai/ha, Preemergence) | pest or weed control at 125 g/ha [5, 19] | pest or weed control at 31 g/ha ([6]; 31 g ai/ha, Preemergence) | pest or weed control at 125 g/ha [6, 19] | pest or weed control at 125 g/ha [7, 20] | pest or weed control at 31 g/ha [7, 21] | pest or weed control at 125 g/ha (Kochia (Kochia scoparia) [8]; [20]) | pest or weed control at 31 g/ha (Kochia (Kochia scoparia) [8]; [21]) | pest or weed control at 125 g/ha ([9]; 125 g ai/ha, visual rating about 10 d after treatment, read-out: Barnyardgrass plant response rating (0 to 100 scale, 0 no effect, 100 complete control)) | pest or weed control at 31 g/ha ([9]; 31 g ai/ha, 0 is no effect, 100 is complete control, read-out: Barnyardgrass plant response rating (0 to 100 scale)) | pest or weed control at 125 g/ha [10, 20] | pest or weed control at 31 g/ha [10, 21] | plant injury at 125 g/ha (corn (Zea mays); [20]) | plant injury at 31 g/ha (corn (Zea mays); [21]) | pest or weed control at 125 g/ha [11, 20] | pest or weed control at 31 g/ha [11, 21] | pest or weed control at 125 g/ha [12, 20] | pest or weed control at 31 g/ha [12, 21] | pest or weed control at 125 g/ha [13, 20] | pest or weed control at 31 g/ha [13, 21] | pest or weed control at 125 g/ha [14, 20] | pest or weed control at 31 g/ha [14, 21] | plant injury at 125 g/ha [15, 20] | plant injury at 31 g/ha [15, 21] | pest or weed control at 250 g/ha [16] | pest or weed control at 250 g/ha [17] | pest or weed control at 250 g/ha (rice (Oryra sativa)) | pest or weed control at 250 g/ha [18]
